Experimental data from ChEMBL document CHEMBL1146397, “Isolation and structure determination of sulfonoquinovosyl dipalmitoyl glyceride, a P-selectin receptor inhibitor from the alga Dictyochloris fragrans” (J Nat Prod, 1997).
Activity calls are given as the source filed them. No cut-off for these calls is given here.

Key:
Type in all cases: cell-based
[1] = target: T1, P-selectin (Homo sapiens) (UniProt P16109); assay: (§1) Displacement of immobilized sulfatide from P-selectin transfected in african green monkey COS cells by IgG-based competitive ELISA
T1 sequence (whole entry): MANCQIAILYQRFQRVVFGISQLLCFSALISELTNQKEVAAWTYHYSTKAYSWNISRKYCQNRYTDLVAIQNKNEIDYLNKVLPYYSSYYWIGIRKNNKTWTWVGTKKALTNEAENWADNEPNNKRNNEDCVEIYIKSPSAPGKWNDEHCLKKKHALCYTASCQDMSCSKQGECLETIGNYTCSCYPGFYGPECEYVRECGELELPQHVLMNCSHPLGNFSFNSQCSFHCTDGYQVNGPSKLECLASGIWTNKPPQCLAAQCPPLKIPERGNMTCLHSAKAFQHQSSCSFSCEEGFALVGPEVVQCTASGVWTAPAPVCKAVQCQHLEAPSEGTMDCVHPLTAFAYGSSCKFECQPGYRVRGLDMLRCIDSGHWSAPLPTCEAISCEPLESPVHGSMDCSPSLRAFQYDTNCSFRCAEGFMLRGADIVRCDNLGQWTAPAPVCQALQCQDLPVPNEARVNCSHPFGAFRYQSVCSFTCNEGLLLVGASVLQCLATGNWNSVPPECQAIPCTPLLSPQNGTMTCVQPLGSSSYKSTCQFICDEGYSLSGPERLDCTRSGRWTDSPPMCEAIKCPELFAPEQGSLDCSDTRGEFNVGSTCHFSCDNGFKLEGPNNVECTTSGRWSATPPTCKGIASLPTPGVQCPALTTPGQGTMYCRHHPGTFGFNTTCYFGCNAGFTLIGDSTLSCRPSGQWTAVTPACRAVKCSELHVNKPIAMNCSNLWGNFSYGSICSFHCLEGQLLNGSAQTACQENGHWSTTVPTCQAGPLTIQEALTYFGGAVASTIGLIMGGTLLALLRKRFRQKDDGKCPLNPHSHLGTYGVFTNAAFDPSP

[2] = target: T1, P-selectin (Homo sapiens); assay: Inhibition of human P-selectin-dependent adhesion of activated platelets to HL60 cells after 30 mins by flow cytometry; settings: HL-60
[3] = target: T2, P-selectin (Homo sapiens, UniProt P16109); assay: as §1
T2 sequence (P16109 whole entry): T1 sequence (whole entry)

[4] = Inhibition of human P-selectin receptor globulin adhesion to HL60 cells; settings: HL-60

inhibition [2]	IC50 [3]	IC50 [4]	Structure (SMILES)	Activity [1]
			CCCCCCCCCCCCCC(=O)OCC(COP(=O)(O)OCCN)OC(=O)CCCCCCCCCCCCC (stereo unspecified)	inactive
0%	1 µM		CCCCC/C=C/C/C=C/CCCCCCCC(=O)OC(COC(=O)CCCCCCCCCCCCCCC)COP(=O)(O)OCC(O)CO (stereo unspecified) [PHOSPHATIDYL GLYCEROL]	
24%	5 µM	40 µM	CCCCCCCCCCCCCCCC(=O)OCC(CO[C@H]1O[C@H](CS(=O)(=O)O)[C@@H](O)[C@H](O)[C@H]1O)OC(=O)CCCCCCCCCCCCCCC (stereo partly specified) [SULFONOQUINOVOSYL DIPALMITOYL GLYCERIDE]	
